In PubChem BioAssay (NCI):
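Five compound concentrations were applied to cells in 96-well plates for 48 hours; endpoints were derived by simple linear interpolation of the resulting dose-response curve. GI50 is the concentration that inhibits growth by half. TGI: concentration producing complete growth inhibition.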

Tests used:
Assay in all cases: NCI anticancer screen, dose series, 48 h
MDA-MB-231 breast = tested on: MDA-MB-231 breast
SK-MEL-28 melanoma = tested on: SK-MEL-28 melanoma
SW-620 colon = tested on: SW-620 colon
NCI-H226 lung = tested on: NCI-H226 lung
RPMI-8226 leukemia = tested on: RPMI-8226 leukemia
HCT-15 colon = tested on: HCT-15 colon
K-562 leukemia = tested on: K-562 leukemia
HL-60(TB) leukemia = tested on: HL-60(TB) leukemia
HT29 colon = tested on: HT29 colon
MOLT-4 leukemia = tested on: MOLT-4 leukemia
TK-10 renal = tested on: TK-10 renal
IGROV1 ovarian = tested on: IGROV1 ovarian
CCRF-CEM leukemia = tested on: CCRF-CEM leukemia
EKVX NSCLC = tested on: EKVX NSCLC
NCI-H522 lung = tested on: NCI-H522 lung
SK-OV-3 ovarian = tested on: SK-OV-3 ovarian
LOX IMVI melanoma = tested on: LOX IMVI melanoma
UACC-257 melanoma = tested on: UACC-257 melanoma
HOP-62 NSCLC = tested on: HOP-62 NSCLC
786-0 renal = tested on: 786-0 renal
NCI/ADR-RES ovarian = tested on: NCI/ADR-RES ovarian
SN12C renal = tested on: SN12C renal
SR leukemia = tested on: SR leukemia
CAKI-1 renal = tested on: CAKI-1 renal
SF-295 CNS = tested on: SF-295 CNS
PC-3 prostate = tested on: PC-3 prostate
SNB-19 CNS = tested on: SNB-19 CNS
MDA-MB-435 = tested on: MDA-MB-435
RXF 393 renal = tested on: RXF 393 renal
A549 NSCLC = tested on: A549 NSCLC
OVCAR-3 ovarian = tested on: OVCAR-3 ovarian
ACHN renal = tested on: ACHN renal
OVCAR-4 ovarian = tested on: OVCAR-4 ovarian
SF-268 CNS = tested on: SF-268 CNS
KM12 colon = tested on: KM12 colon
SK-MEL-2 melanoma = tested on: SK-MEL-2 melanoma
HS 578T breast = tested on: HS 578T breast
DU-145 prostate = tested on: DU-145 prostate
U251 CNS = tested on: U251 CNS
A498 renal = tested on: A498 renal
HCT-116 colon = tested on: HCT-116 colon
HOP-92 NSCLC = tested on: HOP-92 NSCLC
T-47D breast = tested on: T-47D breast
NCI-H23 lung = tested on: NCI-H23 lung
BT-549 breast = tested on: BT-549 breast
SK-MEL-5 melanoma = tested on: SK-MEL-5 melanoma
UO-31 renal = tested on: UO-31 renal
SF-539 CNS = tested on: SF-539 CNS
OVCAR-5 ovarian = tested on: OVCAR-5 ovarian
NCI-H460 lung = tested on: NCI-H460 lung
MALME-3M melanoma = tested on: MALME-3M melanoma
COLO 205 colon = tested on: COLO 205 colon
SNB-75 CNS = tested on: SNB-75 CNS
OVCAR-8 ovarian = tested on: OVCAR-8 ovarian
M14 melanoma = tested on: M14 melanoma
UACC-62 melanoma = tested on: UACC-62 melanoma
HCC-2998 colon = tested on: HCC-2998 colon
MCF7 breast = tested on: MCF7 breast

Structure (SMILES): O=C(CSc1nc2ccc([N+](=O)[O-])cc2[nH]1)Nc1ccc(F)c(Cl)c1
- GI50 (MDA-MB-231 breast): 1.91 µM
- TGI (MDA-MB-231 breast): 5.59 µM
- GI50 (SK-MEL-28 melanoma): 2.68 µM
- TGI (SK-MEL-28 melanoma): 12.9 µM
- GI50 (SW-620 colon): 3.26 µM
- TGI (SW-620 colon): 15.7 µM
- GI50 (NCI-H226 lung): 2.15 µM
- TGI (NCI-H226 lung): 9.57 µM
- GI50 (RPMI-8226 leukemia): 1.39 µM
- TGI (RPMI-8226 leukemia): > 21.5 µM
- GI50 (HCT-15 colon): 2.84 µM
- TGI (HCT-15 colon): 13 µM
- GI50 (K-562 leukemia): 2.44 µM
- TGI (K-562 leukemia): > 42.3 µM
- GI50 (HL-60(TB) leukemia): 2.21 µM
- TGI (HL-60(TB) leukemia): 6.26 µM
- GI50 (HT29 colon): 3.14 µM
- TGI (HT29 colon): 11.9 µM
- GI50 (MOLT-4 leukemia): 2.7 µM
- TGI (MOLT-4 leukemia): 19.9 µM
- GI50 (TK-10 renal): 4.08 µM
- TGI (TK-10 renal): 15.9 µM
- GI50 (IGROV1 ovarian): 2.65 µM
- TGI (IGROV1 ovarian): 14.6 µM
- GI50 (CCRF-CEM leukemia): 2.75 µM
- TGI (CCRF-CEM leukemia): > 45.7 µM
- GI50 (EKVX NSCLC): 1.85 µM
- TGI (EKVX NSCLC): 8.85 µM
- GI50 (NCI-H522 lung): 2.37 µM
- TGI (NCI-H522 lung): 12.4 µM
- GI50 (SK-OV-3 ovarian): 1.42 µM
- TGI (SK-OV-3 ovarian): 4.79 µM
- GI50 (LOX IMVI melanoma): 2.89 µM
- TGI (LOX IMVI melanoma): 14 µM
- GI50 (UACC-257 melanoma): 1.54 µM
- TGI (UACC-257 melanoma): 6.32 µM
- GI50 (HOP-62 NSCLC): 2.46 µM
- TGI (HOP-62 NSCLC): 9.89 µM
- GI50 (786-0 renal): 2.84 µM
- TGI (786-0 renal): 11.8 µM
- GI50 (NCI/ADR-RES ovarian): 2.31 µM
- TGI (NCI/ADR-RES ovarian): 8.23 µM
- GI50 (SN12C renal): 2.36 µM
- TGI (SN12C renal): 10.7 µM
- GI50 (SR leukemia): 3 µM
- TGI (SR leukemia): > 37.3 µM
- GI50 (CAKI-1 renal): 1.95 µM
- TGI (CAKI-1 renal): 7.33 µM
- GI50 (SF-295 CNS): 1.81 µM
- TGI (SF-295 CNS): 5.5 µM
- GI50 (PC-3 prostate): 2.57 µM
- TGI (PC-3 prostate): 11.6 µM
- GI50 (SNB-19 CNS): 2.83 µM
- TGI (SNB-19 CNS): 13.1 µM
- GI50 (MDA-MB-435): 2.6 µM
- TGI (MDA-MB-435): 12.6 µM
- GI50 (RXF 393 renal): 2.34 µM
- TGI (RXF 393 renal): 7.84 µM
- GI50 (A549 NSCLC): 2.48 µM
- TGI (A549 NSCLC): 12.6 µM
- GI50 (OVCAR-3 ovarian): 2 µM
- TGI (OVCAR-3 ovarian): 10.1 µM
- GI50 (ACHN renal): 2.35 µM
- TGI (ACHN renal): 7.93 µM
- GI50 (OVCAR-4 ovarian): 1.99 µM
- TGI (OVCAR-4 ovarian): 17.8 µM
- GI50 (SF-268 CNS): 2.91 µM
- TGI (SF-268 CNS): 13.2 µM
- GI50 (KM12 colon): 2.83 µM
- TGI (KM12 colon): 12.2 µM
- GI50 (SK-MEL-2 melanoma): 2.22 µM
- TGI (SK-MEL-2 melanoma): 6.35 µM
- GI50 (HS 578T breast): 2.45 µM
- TGI (HS 578T breast): 9.63 µM
- GI50 (DU-145 prostate): 3.24 µM
- TGI (DU-145 prostate): 13.4 µM
- GI50 (U251 CNS): 2.5 µM
- TGI (U251 CNS): 12.3 µM
- GI50 (A498 renal): 1.11 µM
- TGI (A498 renal): 3.6 µM
- GI50 (HCT-116 colon): 2.42 µM
- TGI (HCT-116 colon): 10.6 µM
- GI50 (HOP-92 NSCLC): 0.346 µM
- TGI (HOP-92 NSCLC): 2.72 µM
- GI50 (T-47D breast): 1.11 µM
- TGI (T-47D breast): 10.2 µM
- GI50 (NCI-H23 lung): 2.05 µM
- TGI (NCI-H23 lung): 8.79 µM
- GI50 (BT-549 breast): 2.44 µM
- TGI (BT-549 breast): 9.34 µM
- GI50 (SK-MEL-5 melanoma): 1.22 µM
- TGI (SK-MEL-5 melanoma): 3.03 µM
- GI50 (UO-31 renal): 1.69 µM
- TGI (UO-31 renal): 7.8 µM
- GI50 (SF-539 CNS): 3 µM
- TGI (SF-539 CNS): 11.4 µM
- GI50 (OVCAR-5 ovarian): 2.65 µM
- TGI (OVCAR-5 ovarian): 11.5 µM
- GI50 (NCI-H460 lung): 2.87 µM
- TGI (NCI-H460 lung): 11.3 µM
- GI50 (MALME-3M melanoma): 1.75 µM
- TGI (MALME-3M melanoma): 6.96 µM
- GI50 (COLO 205 colon): 1.6 µM
- TGI (COLO 205 colon): 3.3 µM
- GI50 (SNB-75 CNS): 1.84 µM
- TGI (SNB-75 CNS): 7.5 µM
- GI50 (OVCAR-8 ovarian): 3.04 µM
- TGI (OVCAR-8 ovarian): > 34.4 µM
- GI50 (M14 melanoma): 2.81 µM
- TGI (M14 melanoma): 12.4 µM
- GI50 (UACC-62 melanoma): 1.63 µM
- TGI (UACC-62 melanoma): 10.5 µM
- GI50 (HCC-2998 colon): 2.95 µM
- TGI (HCC-2998 colon): 11.8 µM
- GI50 (MCF7 breast): 2.03 µM
- TGI (MCF7 breast): 9.4 µM
